Assay: Stability of risperidone stock solution
Assay type: physicochemical
Details: 200 μg/mL in acetonitrile/H2O (50/50 v/v), stored at +2-8° C.
Procedure: Starting from this mother solution, calibration standards were prepared by dilution in the same sample solvent mixture as above. Six dilutions were performed to obtain calibration standards of 1, 5, 10, 25, 50, 100 and 200 μg/mL.

SMILES: Cc1nc2n(c(=O)c1CCN1CCC(c3noc4cc(F)ccc34)CC1)CCCC2 [risperidone]
- stability of stock solution: ≥ 5 months
